Test results taken from patent US20240385174A1, “METHOD FOR SCREENING SUBSTANCE THAT SUPPRESSES 4-METHYLACETOPHENONE ODOR, AND METHOD FOR SUPPRESSING 4-METHYL ACETOPHENONE ODOR” (AJINOMOTO CO., INC., priority 2022, published 2024).

Columns and labels:
OR5P3 = biological target: T1, OR5P3 (Homo sapiens, UniProt Q8WZ94); assay: Screening for OR5P3 antagonist (luciferase assay, 2-heptanone as receptor-activating substance); format: cell-based; conditions: inhibition of OR5P3 response to 2-heptanone (1000 μM); test substance 0.3-100 μM; HEK293T cells expressing OR5P3
T1 construct: host or cells: HEK293T
T1 sequence (Q8WZ94 with tags, fused parts or gaps): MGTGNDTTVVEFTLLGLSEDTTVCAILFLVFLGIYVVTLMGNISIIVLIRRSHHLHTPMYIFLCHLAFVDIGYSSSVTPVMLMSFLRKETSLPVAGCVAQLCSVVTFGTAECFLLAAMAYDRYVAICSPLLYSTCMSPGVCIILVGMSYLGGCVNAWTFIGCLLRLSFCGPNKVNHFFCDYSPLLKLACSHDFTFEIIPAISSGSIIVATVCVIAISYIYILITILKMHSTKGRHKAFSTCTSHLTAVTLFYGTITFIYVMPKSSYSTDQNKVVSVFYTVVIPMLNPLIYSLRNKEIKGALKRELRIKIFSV
Method: The expression vector mixture was allowed to stand for 20 minutes in a laminar flow cabinet and then added to HEK293T cells inoculated in 10-cm petri dishes the day before (2.5 to 3.5×10^6 cells/10-cm petri dish). After incubation for 5 hours in an incubator maintained at 37° C. and 5% CO2, the HEK293T cells were inoculated into each well of a 96-well plate (BD) in a volume of 100 μl (2.5×10^6 cells/ml), and cultured overnight in an incubator maintained at 37° C. and 5% CO2. […] As a control, the same procedure was performed by using the empty vector Rho-pME18S instead of the expression vector for human olfactory receptor in the expression vector mixture to obtain culture of the HEK293T cells transfected with the empty vector Rho-pME18S (hereinafter also referred to as the “control cells”).
The medium was removed from the culture of HEK293T cells expressing OR5P3 obtained in the section <1-2> mentioned above, and 60 μl of a mixed solution of a test substance and 2-heptanone (containing 100 μM test substance and 1000 μM 2-heptanone) or 60 μl of a 2-heptanone solution (containing 1000 μM 2-heptanone) was added to obtain a reaction solution. The solutions were prepared by dissolving the substances in CD293 (Life Technologies, Inc.). The cells were incubated in a CO2 incubator at 37° C. for 3 hours so that the firefly luciferase gene was sufficiently expressed in the cells. The value of luminescence derived from firefly luciferase in the cells was measured and designated as “Luc value”. The value of luminescence derived from firefly luciferase was measured by using Dual-Go™ Luciferase Assay System (Promega) according to the operation manual of the product.
Receptor response inhibition ratio of the test substance was calculated as follows. The Luc value (Y) in the cells not stimulated with 2-heptanone was subtracted from the Luc value (X) in the cells stimulated with 2-heptanone alone. Similarly, the Luc value (Y) in the cells not stimulated with 2-heptanone was subtracted from the Luc value (Z) in the cells stimulated with a mixture of 2-heptanone and the test substance. The receptor response inhibition ratio of the test substance was calculated in accordance with the following equation using the increase in value of luminescence caused by stimulation with 2-heptanone alone (X Y) as the standard. The experiment was performed in duplicate, and an average value was obtained.
The concentration of the test substance was 0.3, 1, 3, 10, 30, or 100 μM. The response of the receptor to 2-heptanone (1000 μM) in the presence of each concentration of the test substance was measured and represented as the relative response intensity based on the response intensity of the receptor to 2-heptanone (1000 μM) observed in the absence of the test substance, which was taken as 100%.

[1] = Test Example 3: sensory evaluation of citral-derived degradation odor-masking effect; format: in vivo; conditions: score 0 to 10 (0 normal sample, 5 normal:degraded 1:1, 10 degraded sample); 100 ppm citral aqueous solution stored at 44° C. for two weeks; added ppm: decadienal 0.002, nonadienal 0.002, 2-methylbenzenethiol 0.165, S-(2-methyl-3-furyl) ethanethioate 0.120, piperine 6.667, nootkatone 10.000, sclareol 16.667; average of two experts
Method: A 100 ppm citral aqueous solution (stored under refrigeration after preparation) was used as a normal sample. This solution was stored at 44° C. for two weeks to generate a degraded odor derived from citral, and was used as a degraded sample. Evaluation samples were prepared by adding each of the compounds shown in Table 5 to the degraded sample at the concentrations shown in the same.
The citral-derived degradation odor intensity was scored as 0 to 10 on the basis of the following evaluation criteria. […] On the basis of the citral-derived degradation odor intensity, the citral-derived degradation odor-masking effect was evaluated.
• 0: Citral-derived degradation odor intensity of the normal sample • 5: Citral-derived degradation odor intensity of a mixture of the normal sample and degraded sample (normal sample:degraded sample=1:1) • 10: Citral-derived degradation odor intensity of the degraded sample

[2] = Test Example 4: sensory evaluation of lemon-derived degradation odor-masking effect (single compounds); format: in vivo; conditions: score 0 to 10 (0 normal sample, 5 normal:degraded 1:1, 10 degraded sample); lemon beverage stored at 44° C. for 2 weeks; added ppm: decadienal 0.002, nonadienal 0.002, 2-methylbenzenethiol 0.165, S-(2-methyl-3-furyl) ethanethioate 0.120, piperine 6.667, nootkatone 10.000, sclareol 16.667; average of 2 experts
Method: A commercially available lemon beverage (Chelate Lemon W Lemon (Pokka Sapporo), stored under refrigeration after purchased) was used as a normal sample. This lemon beverage was stored at 44° C. for 2 weeks to generate a lemon-derived degradation odor and was used as a degraded sample. Evaluation samples were prepared by adding each of the compounds shown in Table 6 to the degraded sample at the concentrations shown in the same.
The lemon-derived degradation odor intensity was scored as 0 to 10 on the basis of the following evaluation criteria. […] On the basis of the lemon-derived degradation odor intensity, the lemon-derived degradation odor-masking effect was evaluated.
• 0: Lemon-derived degradation odor intensity of the normal sample • 5: Lemon-derived degradation odor intensity of a mixture of the normal sample and degraded sample (normal sample:degraded sample=1:1) • 10: Lemon-derived degradation odor intensity of the degraded sample

olfactory receptor OR5P3 = biological target: T2, olfactory receptor OR5P3 (Homo sapiens, UniProt Q8WZ94); assay: Luciferase reporter gene assay: response of human olfactory receptors to 4-methylacetophenone; format: cell-based
T2 construct: host or cells: HEK293T
T2 sequence (Q8WZ94 with tags, fused parts or gaps): T1 sequence (Q8WZ94 with tags, fused parts or gaps)
Description: The genes for the 352 types of human olfactory receptors were purchased from TrueClone cDNA Clone Collection (OriGene). Fragments for subcloning of the 352 types of human olfactory receptor genes were amplified by PCR using primers designed on the basis of sequence information available in GenBank and the purchased human olfactory receptor genes as the templates. Each of the amplified fragments for subcloning of the genes was subcloned into the Rho-pME18S vector (K. Kajiya et al., Journal of Neuroscience. 15 Aug. 2001, 21 (16) 6018-6025) downstream of the Rho tag sequence using the EcoRI and XhoI sites to obtain 352 types of expression vectors for human olfactory receptors.
HEK293T cells expressing each of the 352 types of olfactory receptors were prepared by the following procedure. […]
The olfactory receptors expressed by HEK293T cells conjugate with Golf to activate adenylate cyclase, and thereby increase the amount of intracellular cAMP. In this example, the olfactory receptor response was measured by using a luciferase reporter gene assay, in which the increase in intracellular cAMP amount is monitored as an increase in firefly luciferase-derived luminescence. […] In addition, value of the luminescence derived from Renilla luciferase was used as an internal standard to correct errors caused by differences in gene transfer efficiency and cell number in each well. […]

Compound | IC50 (OR5P3) | Evaluation score (citral-derived degradation odor intensity) [1] | Evaluation score (lemon-derived degradation odor intensity) [2] | also measured
CC(C)CC(O)Cc1ccccc1 (centres unmarked) | 67 µM |  |  | 
CCC=CC=CC=O [2,4-Heptadienal] | 78 µM |  |  | 
Cc1ccccc1S [2-Methylbenzenethiol] | 46 µM | 8 | 8 | 
CC=C(C=O)c1ccccc1 [2-Phenyl-2-butenal] | 65 µM |  |  | 
SCCc1ccccc1 [2-Phenylethanethiol] | 17 µM |  |  | 
SCc1cccs1 [2-Thiophenemethanethiol] | 39 µM |  |  | 
Sc1cccs1 [2-Thiophenethiol] | 76 µM |  |  | 
CC(=O)c1ccc(C)cc1 [4-methylacetophenone] |  |  |  | response of olfactory receptor OR5P3 to 4-methylacetophenone (olfactory receptor activity) (olfactory receptor OR5P3; 300 μM and 30 μM 4-methylacetophenone, 352 types of human olfactory receptors expressed in HEK293T cells, FIGS. 1 and 2): OR5P3 showed a response; 4-methylacetophenone concentration dependency of the response of OR5P3 (fold increase) (olfactory receptor OR5P3; HEK293T cells expressing OR5P3, n=3, FIG. 3): concentration-dependent manner
CC=Cc1ccc(OCc2ccccc2)c(OC)c1 [Benzyl isoeugenol] | 49 µM |  |  | 
S=C=NCc1ccccc1 [Benzyl isothiocyanate] | 19 µM |  |  | 
c1coc(CSCc2ccco2)c1 [Difurfuryl sulfide] | 39 µM |  |  | 
CCCCCCCCC(=O)NCc1ccc(O)c(OC)c1 [N-Vanillylnonanamide] | 2 µM |  |  | 
C=C(C)[C@@H]1CCC2=CC(=O)C[C@@H](C)[C@]2(C)C1 [Nootkatone] | 8.1 µM | 5.5 | 6 | 
O=C(/C=C/C=C/c1ccc2c(c1)OCO2)N1CCCCC1 [Piperine] |  | 6 | 8 | 
CC(=O)Sc1ccoc1C [S-(2-Methyl-3-furyl) ethanethioate] | 45 µM | 6 | 6 | 
C=C[C@](C)(O)CC[C@@H]1[C@@]2(C)CCCC(C)(C)[C@@H]2CC[C@@]1(C)O [Sclareol] |  | 5.5 | 6 | 
CCCCC/C=C/C=C/C=O [trans, trans-2,4-Decadienal] |  | 5 | 6 | 
CCCC/C=C/C=C/C=O [trans, trans-2,4-Nonadienal] |  | 7 | 7.5 | 
